Experimental data as given in ChEMBL document CHEMBL2057187, “AM-8553: a novel MDM2 inhibitor with a promising outlook for potential clinical development” (J Med Chem, 2012).

Tests used:
[1] = test system: SJSA-1; experiment: Antitumor activity against human SJSA1 cells xenografted in mouse assessed as tumor regression at 200 mg/kg, qd; format: functional
[2] = Oral bioavailability in rat; format: ADME, organism-based; settings: in vivo
[3] = Oral bioavailability in mouse; format: ADME, organism-based; settings: in vivo

CC[C@@H]([C@H](C)O)N1C(=O)[C@@](C)(CC(=O)O)C[C@H](c2cccc(Cl)c2)[C@H]1c1ccc(Cl)cc1
Activity [1]: 27%
bioavailability [2]: 100%
bioavailability [3]: 12%
